From ChEMBL document CHEMBL3885861, “Open TG-GATES”

Species: Rattus norvegicus
Assay: Open TG-GATES - Regimen: Single
Format: toxicity, organism-based, Sprague-Dawley
Parameters: regimen Single, gender Male, age 6 weeks
Conditions: in vivo, ip, 150 mg/kg, route intraperitoneal injection, dose level Low; for APTT / Bas / Eos / Fbg / Hb / Ht / Lym / MCH / MCHC / MCV / Mono / Neu / PT / Plat / RBC / Ret / WBC: tissue Blood; for KIDNEY_L / KIDNEY_R / KIDNEY_TOTAL: tissue Kidney; for LIVER: tissue Liver; for A/G / ALP / ALT / AST / BUN / CRE / Ca / Cl / DBIL / GLC / IP / K / LDH / Na / PL / RALB / TBIL / TC / TG / TP / gamma-GTP: tissue Plasma

With CCCCS(=N)(=O)CCC(N)C(=O)O (configuration not stated) [BUTHIONINE SULFOXIMINE] the TERMINAL_BW (3 h) was 216.6 g, the APTT (3 h) was 16.5 s and the Bas (3 h) was 0%. For the same compound, the Eos (3 h) was 0.8%, the Fbg (3 h) was 216.4 mg/dL and the Hb (3 h) was 13 g/dL. For the same compound, the Ht (3 h) was 40%, the Lym (3 h) was 74.8% and the MCH (3 h) was 21.5 pg. It also gave an MCHC (3 h) of 32.6%, an MCV (3 h) of 66 fL and a Mono (3 h) of 6%. The Neu (3 h) was 18.6%, the PT (3 h) was 12.1 s and the Plat (3 h) was 112.9 x10_4/uL. The RBC (3 h) was 606.2 x10_4/ul, the Ret (3 h) was 9.2% and the WBC (3 h) was 102.3 x10_2/uL. The KIDNEY_L (3 h) was 0.9 g, the KIDNEY_R (3 h) was 1 g and the KIDNEY_TOTAL (3 h) was 1.9 g. It also gave an LIVER (3 h) of 10.3 g, an A/G (3 h) of 2.3 and an ALP (3 h) of 957.2 IU/L. It also gave an ALT (3 h) of 38.8 IU/L, an AST (3 h) of 70.8 IU/L and a BUN (3 h) of 13.6 mg/dL. The CRE (3 h) was 0.5 mg/dL, the Ca (3 h) was 10.9 mg/dL and the Cl (3 h) was 104.8 meq/L. The DBIL (3 h) was 0.08 mg/dL, the GLC (3 h) was 193 mg/dL and the IP (3 h) was 9.3 mg/dL. The K (3 h) was 4.7 meq/L, the LDH (3 h) was 91.8 IU/L and the Na (3 h) was 139.8 meq/L. For the same compound, the PL (3 h) was 133.8 mg/dL, the RALB (3 h) was 3.8 g/dL and the TBIL (3 h) was 0.3 mg/dL. The TC (3 h) was 73.4 mg/dL, the TG (3 h) was 58.4 mg/dL and the TP (3 h) was 5.4 g/dL. The gamma-GTP (3 h) was 1.2 IU/L, the TERMINAL_BW (6 h) was 216 g and the APTT (6 h) was 16.4 s. The Bas (6 h) was 0%, the Eos (6 h) was 0.6% and the Fbg (6 h) was 217.8 mg/dL. For the same compound, the Hb (6 h) was 13.3 g/dL, the Ht (6 h) was 39.8% and the Lym (6 h) was 70%. For the same compound, the MCH (6 h) was 22.2 pg, the MCHC (6 h) was 33.6% and the MCV (6 h) was 66.2 fL. It also gave a Mono (6 h) of 8.6%, a Neu (6 h) of 20.8% and a PT (6 h) of 11.2 s. The Plat (6 h) was 109.8 x10_4/uL, the RBC (6 h) was 600.6 x10_4/ul and the Ret (6 h) was 9.3%. It also gave a WBC (6 h) of 102.1 x10_2/uL, a KIDNEY_L (6 h) of 1 g and a KIDNEY_R (6 h) of 1 g. The KIDNEY_TOTAL (6 h) was 2 g, the LIVER (6 h) was 9.7 g and the A/G (6 h) was 1.8. For the same compound, the ALP (6 h) was 849.4 IU/L, the ALT (6 h) was 32.8 IU/L and the AST (6 h) was 72 IU/L. The BUN (6 h) was 13 mg/dL, the CRE (6 h) was 0.6 mg/dL and the Ca (6 h) was 10.8 mg/dL. It also gave a Cl (6 h) of 105.6 meq/L, a DBIL (6 h) of 0 mg/dL and a GLC (6 h) of 191 mg/dL. For the same compound, the IP (6 h) was 9.5 mg/dL, the K (6 h) was 4.6 meq/L and the LDH (6 h) was 73.2 IU/L. It also gave a Na (6 h) of 140.2 meq/L, a PL (6 h) of 131.4 mg/dL and an RALB (6 h) of 3.4 g/dL. For the same compound, the TBIL (6 h) was 0.4 mg/dL, the TC (6 h) was 71.8 mg/dL and the TG (6 h) was 63.4 mg/dL. It also gave a TP (6 h) of 5.2 g/dL, a gamma-GTP (6 h) of 1.4 IU/L and a TERMINAL_BW (9 h) of 212.7 g. The APTT (9 h) was 16.6 s, the Bas (9 h) was 0% and the Eos (9 h) was 1.2%. For the same compound, the Fbg (9 h) was 232.6 mg/dL, the Hb (9 h) was 13 g/dL and the Ht (9 h) was 38.7%. The Lym (9 h) was 59.6%, the MCH (9 h) was 22.1 pg and the MCHC (9 h) was 33.7%. For the same compound, the MCV (9 h) was 65.6 fL, the Mono (9 h) was 4.2% and the Neu (9 h) was 35.2%. It also gave a PT (9 h) of 11.2 s, a Plat (9 h) of 112.1 x10_4/uL and an RBC (9 h) of 589.8 x10_4/ul. The Ret (9 h) was 10.3%, the WBC (9 h) was 124.2 x10_2/uL and the KIDNEY_L (9 h) was 1 g. The KIDNEY_R (9 h) was 1 g, the KIDNEY_TOTAL (9 h) was 2 g and the LIVER (9 h) was 8.7 g. The A/G (9 h) was 1.9, the ALP (9 h) was 803.6 IU/L and the ALT (9 h) was 33.6 IU/L. It also gave an AST (9 h) of 69 IU/L, a BUN (9 h) of 10.4 mg/dL and a CRE (9 h) of 0.5 mg/dL. It also gave a Ca (9 h) of 10.9 mg/dL, a Cl (9 h) of 105.8 meq/L and a DBIL (9 h) of 0.024 mg/dL. It also gave a GLC (9 h) of 196.8 mg/dL, an IP (9 h) of 9.7 mg/dL and a K (9 h) of 4.9 meq/L. The LDH (9 h) was 94 IU/L, the Na (9 h) was 139 meq/L and the PL (9 h) was 143.4 mg/dL. The RALB (9 h) was 3.5 g/dL, the TBIL (9 h) was 0.4 mg/dL and the TC (9 h) was 89.6 mg/dL. It also gave a TG (9 h) of 33.8 mg/dL, a TP (9 h) of 5.4 g/dL and a gamma-GTP (9 h) of 1.8 IU/L. It also gave a TERMINAL_BW (24 h) of 227.8 g, an APTT (24 h) of 16.9 s and a Bas (24 h) of 0%. The Eos (24 h) was 1.4%, the Fbg (24 h) was 242.2 mg/dL and the Hb (24 h) was 13.1 g/dL. For the same compound, the Ht (24 h) was 39.2%, the Lym (24 h) was 77.8% and the MCH (24 h) was 21.8 pg. It also gave an MCHC (24 h) of 33.5%, an MCV (24 h) of 65.1 fL and a Mono (24 h) of 6%. It also gave a Neu (24 h) of 14.6%, a PT (24 h) of 11.5 s and a Plat (24 h) of 125.6 x10_4/uL. For the same compound, the RBC (24 h) was 602.2 x10_4/ul, the Ret (24 h) was 9.2% and the WBC (24 h) was 76.2 x10_2/uL. It also gave a KIDNEY_L (24 h) of 1 g, a KIDNEY_R (24 h) of 1 g and a KIDNEY_TOTAL (24 h) of 1.9 g. The LIVER (24 h) was 11.2 g, the A/G (24 h) was 1.8 and the ALP (24 h) was 977.2 IU/L. It also gave an ALT (24 h) of 31.4 IU/L, an AST (24 h) of 61.4 IU/L and a BUN (24 h) of 19.4 mg/dL. The CRE (24 h) was 0.5 mg/dL, the Ca (24 h) was 11.3 mg/dL and the Cl (24 h) was 104 meq/L. The DBIL (24 h) was 0.01 mg/dL, the GLC (24 h) was 209 mg/dL and the IP (24 h) was 8.4 mg/dL. The K (24 h) was 4.5 meq/L, the LDH (24 h) was 86 IU/L and the Na (24 h) was 139.8 meq/L. For the same compound, the PL (24 h) was 156.6 mg/dL, the RALB (24 h) was 3.7 g/dL and the TBIL (24 h) was 0.3 mg/dL. It also gave a TC (24 h) of 88.2 mg/dL, a TG (24 h) of 101 mg/dL and a TP (24 h) of 5.9 g/dL. It also gave a gamma-GTP (24 h) of 1 IU/L.
